The values that follow come from article PMC7318222, “A Family of Water‐Immiscible, Dipolar Aprotic, Diamide Solvents from Succinic Acid” (Chemsuschem, 2020).

Test [1] has as its target T1, TRβ (Homo sapiens, UniProt P10828).
T1 construct: expression construct for the full-length human receptor under investigation; expressed in transfected cells; host or cells: human U2-OS cells (ATCC HTB-96), stably transfected
T1 sequence (P10828 1-461): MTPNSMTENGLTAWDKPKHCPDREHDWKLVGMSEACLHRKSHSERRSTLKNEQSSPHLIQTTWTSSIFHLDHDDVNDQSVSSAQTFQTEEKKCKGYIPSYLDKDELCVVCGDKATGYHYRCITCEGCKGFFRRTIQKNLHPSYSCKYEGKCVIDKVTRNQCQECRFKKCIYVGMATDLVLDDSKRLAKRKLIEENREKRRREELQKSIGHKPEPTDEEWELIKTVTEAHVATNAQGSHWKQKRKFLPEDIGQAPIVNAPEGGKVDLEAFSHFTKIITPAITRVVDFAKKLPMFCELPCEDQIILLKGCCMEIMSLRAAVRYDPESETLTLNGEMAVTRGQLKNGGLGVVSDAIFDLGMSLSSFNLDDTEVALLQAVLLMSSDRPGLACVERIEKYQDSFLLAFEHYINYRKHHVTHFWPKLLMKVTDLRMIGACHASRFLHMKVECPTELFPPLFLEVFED
The test can be described thus: TRβ-anti CALUX reporter gene assay (antagonistic mode). The format is cell-based. The arrangement: key: –: no effect observed up to the highest test concentration. To be noted: PC20, 24 h exposure. The source says:
(§1) 2-methylimidazole 99.0%, zinc(II) nitrate hexahydrate ≥99.0%, para-cymene 99.0%, 1,4-dioxane 99.8% (anhydrous), 4-nitroaniline ≥99.0%, 1-octanol ≥99.0%, diglyme ≥99.0%, DMSO-d6 (99.8% D) and chloroform-d (99.8% D) were purchased from Sigma-Aldrich. Toluene ≥99.0%, hexane ≥99.5%, DCM ≥99.5%, chloroform ≥99.5%, DMSO ≥99.0% were purchased from VWR. N,N-diethyl-4-nitroaniline ≥98.0% was purchased from Alfa Aeser. Cyrene was supplied by Circa group. N-butylpyrrolidinone was supplied by Eastman chemicals. N,N-dimethylformamide 99.9% and N,N-dimethylacetamide 99.9% were purchased from Fischer. The flakes of Ultrason® E3020 P Polyarylethersulfone of 55,000 Da were obtained from INGE.BASF, Germany. The CALUX cell lines have been described previously.[1] They are based on human U2-OS cells (ATCC, HTB-96) stably transfected with an expression construct for the full-length human receptor under investigation, and a reporter construct consisting of multimerized responsive elements for the cognate receptor coupled to a minimal promoter element (TATA) and a luciferase gene. Cells were maintained as described previously,[2] using cell culture media and supplements from Fisher Scientific as described in the experimental procedures section. […]
(§2) In vitro reporter gene assays
(§3) The automated CALUX assays were carried out similarly as described earlier,[12] with some adaptations. In brief, the assay was performed in CO2 independent medium (Fisher Scientific, […]
(§4) supplement (Fisher Scientific, 11574466), 10 U/mL penicillin and 10 µg/mL streptomycin. A cell suspension in assay medium was made of 1 × 10^5cells/mL, and white 384-wells plates were seeded with 30 µl cell suspension/well. After 24 h, exposure medium was prepared. A dilution series in 0.5log unit increments of each test compound (in DMSO) was added to a 96-wells plate containing assay medium (2% v/v). Of this exposure mixture, 30 µl was added to the assay plates containing the CALUX cells, resulting in a final DMSO concentration of 1%. Additionally, DMSO blanks and a full dose response curve of the relevant reference compound were included on each plate. All samples were tested in triplicate. The preparation of the compound dilution series as well as the exposure of the cells were performed on a Hamilton StarLET liquid handling robot coupled to a Cytomat incubator.
(§5) Directly after exposure, plates were sealed with non-breathing plate seals (Plate sealer, easy seal transparent; Greiner-Bio-One, 676001). After 24 h the exposure medium was removed using an EL406 washer-dispenser (BioTek) and 10 µl/well triton lysisbuffer was added by the EL406.
(§6) Subsequently, the luciferase signal was measured in a luminometer (InfinitePro coupled to a Connect Stacker, both TECAN). In order to be able to detect receptor antagonism, several assays were also performed in antagonistic mode. […]
(§7) The luminometer data was analysed as follows; the average of the triplicate wells was determined, and the average blank (DMSO) value was subtracted. […] For antagonist- and cytotoxicity experiments, PC20 values were determined instead, which was defined as the concentration where the test compound causes a 20% decrease in the basal signal, which was […]
(§8) curve, the signal induction above background (DMSO) was determined, and the concentration where the compound elicited a 1.5-fold increase above background was used as LEC.
In general terms: In a reporter assay the amount or activity of a reporter protein is the signal.

Test [2] deals with T2, AhR (Homo sapiens, UniProt P35869).
T2 construct: expression construct for the full-length human receptor under investigation; expressed in transfected cells; host or cells: human U2-OS cells (ATCC HTB-96), stably transfected
T2 sequence (P35869 11-848): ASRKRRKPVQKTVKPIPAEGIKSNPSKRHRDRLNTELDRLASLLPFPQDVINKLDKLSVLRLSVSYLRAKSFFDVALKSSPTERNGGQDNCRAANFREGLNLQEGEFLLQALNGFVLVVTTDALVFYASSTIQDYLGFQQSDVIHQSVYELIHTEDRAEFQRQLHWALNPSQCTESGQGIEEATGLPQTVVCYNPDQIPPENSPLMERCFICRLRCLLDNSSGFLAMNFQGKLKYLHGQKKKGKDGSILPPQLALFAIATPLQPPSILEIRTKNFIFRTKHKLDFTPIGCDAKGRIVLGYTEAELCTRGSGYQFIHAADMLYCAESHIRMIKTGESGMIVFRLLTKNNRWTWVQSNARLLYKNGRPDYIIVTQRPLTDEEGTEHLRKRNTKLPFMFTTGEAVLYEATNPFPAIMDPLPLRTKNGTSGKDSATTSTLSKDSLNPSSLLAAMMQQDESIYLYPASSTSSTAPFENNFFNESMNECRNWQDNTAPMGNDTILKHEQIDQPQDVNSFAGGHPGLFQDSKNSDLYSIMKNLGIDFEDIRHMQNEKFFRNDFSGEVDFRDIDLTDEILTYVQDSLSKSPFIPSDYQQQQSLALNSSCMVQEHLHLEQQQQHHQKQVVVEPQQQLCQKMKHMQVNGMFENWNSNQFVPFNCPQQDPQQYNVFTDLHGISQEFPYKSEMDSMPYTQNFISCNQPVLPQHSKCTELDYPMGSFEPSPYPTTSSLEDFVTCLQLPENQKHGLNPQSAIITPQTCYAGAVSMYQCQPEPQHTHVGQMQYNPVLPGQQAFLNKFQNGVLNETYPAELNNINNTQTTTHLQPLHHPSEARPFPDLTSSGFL
Put plainly: AhR CALUX reporter gene assay. The format is cell-based. The arrangement: key: –: no effect observed up to the highest test concentration. To be noted: PC10, 24 h exposure.
Excerpt: as §1, §2, §3, §4, §5, §6, §7, §8

Each structure is given as a SMILES string.

As to `CCCCN(CC)C(=O)CCC(=O)N(CC)CCCC` [EBSA, N,N′‐diethyl‐N,N′‐dibutylsuccindiamide], in test [1], the “LEC TRβ‐anti” value is listed as “–”. Moreover, the “LEC AhR” value in test [2] was “–”.

`CCCCN(C)C(=O)CCC(=O)N(C)CCCC` [MBSA, N,N′‐dimethyl‐N,N′‐dibutylsuccindiamide]: in test [1], the “LEC TRβ‐anti” value is reported as “–”. The “LEC AhR” value in test [2] was “–”.

As for `CCCCN1CCCC1=O` [NBP, N‐Butylpyrrolidinone, reference compound], the “LEC TRβ‐anti” value in test [1] is given as “–”. In addition, the “LEC AhR” value in test [2] was “–”.

Regarding `CN1CCCC1=O` [NMP, N‐methyl‐2‐pyrrolidone, reference compound], the “LEC TRβ‐anti” value in test [1] is recorded as “–”. The “LEC AhR” value in test [2] is −2.0 Log M.

With `CCCCN(CCCC)C(=O)CCC(=O)N(CCCC)CCCC` [TBSA, N,N,N′,N′‐tetrabutylsuccindiamide], the “LEC TRβ‐anti” value in test [1] was “–”. For the same molecule, in test [2], the “LEC AhR” value is given as “–”.
